We go through 7 compounds from patent US20190375766A1, “PROCESS FOR PREPARING HALOGENATED BICYCLIC SYSTEMS” (Bayer CropScience Aktiengesellschaft, priority 2016, published 2019).

The term chromatographic logP denotes lipophilicity estimated from chromatographic retention.

This data set in a line: log P by HPLC-MS. The class given is physicochemical.

The compound `Cn1c(Br)nc2cc(C(F)(F)F)ncc21` [Example 3, 2-bromo-3-methyl-6-(trifluoromethyl)-3H-imidazo[4,5-c]pyridine] yielded a chromatographic logP of 1.71.

For `Cn1c(I)nc2cc(C(F)(F)F)cnc21` [Example 7, 2-iodo-3-methyl-6-(trifluoromethyl)-3H-imidazo[4,5-b]pyridine], the chromatographic logP came to 2.29. To `Cn1cnc2cc(C(F)(F)F)nnc21` [Example 4, 7-methyl-3-(trifluoromethyl)-7H-imidazo[4,5-c]pyridazine] belongs 0.91; to `Cn1c(I)nc2cc(C(F)(F)F)ncc21` [Example 2, 2-iodo-3-methyl-6-(trifluoromethyl)-3H-imidazo[4,5-c]pyridine], 1.77. `Cn1cnc2cc(C(F)(F)F)cnc21` [Example 6, 3-methyl-6-(trifluoromethyl)-3H-imidazo[4,5-b]pyridine] showed a chromatographic logP of 1.44. To `Cn1cnc2cc(C(F)(F)F)ncc21` [Example 1, 3-methyl-6-(trifluoromethyl)-3H-imidazo[4,5-c]pyridine] belongs 1.09. For the compound `Cn1c(I)nc2cc(C(F)(F)F)nnc21` [Example 5, 6-iodo-7-methyl-3-(trifluoromethyl)-7H-imidazo[4,5-c]pyridazine], the chromatographic logP is 1.66.
